Laboratory results from US20260159512A1, “BCAT2 INHIBITORS” (AGIOS PHARMACEUTICALS, INC., priority 2021, published 2026).

Experiments:
Conditions in all cases: average where tested multiple times
BCAT2 [1] = molecular target: T1, BCAT2 (Homo sapiens, UniProt O15382); assay: BCAT2 in vitro enzyme inhibition assay (resazurin/diaphorase-coupled fluorescence); format: biochemical
T1 sequence (O15382 28-392): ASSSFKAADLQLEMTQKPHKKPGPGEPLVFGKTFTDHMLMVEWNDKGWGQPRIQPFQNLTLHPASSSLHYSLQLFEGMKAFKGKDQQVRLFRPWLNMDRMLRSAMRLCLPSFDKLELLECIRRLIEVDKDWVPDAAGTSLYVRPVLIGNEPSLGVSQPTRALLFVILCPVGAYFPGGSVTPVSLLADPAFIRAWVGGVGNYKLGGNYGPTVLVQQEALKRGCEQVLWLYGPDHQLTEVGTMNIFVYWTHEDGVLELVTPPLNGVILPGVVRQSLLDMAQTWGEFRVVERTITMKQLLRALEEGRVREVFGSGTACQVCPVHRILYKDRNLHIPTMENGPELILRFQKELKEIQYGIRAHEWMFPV
Outline: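 Coupled fluorescence readout: glutamate formed from L-leucine/α-ketoglutarate transamination drives GDH/NAD/diaphorase reduction of resazurin (Ex 540/Em 590). Human BCAT2 was first exposed 1 h at room temperature to compound, top final 100 μM in 3-fold, 10-point series; substrate reaction ran 1 h before SDS quench, in technical duplicate with DMSO max and enzyme-free min controls.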

hBCAT1 = molecular target: T2, hBCAT1 (Homo sapiens, UniProt P54687); assay: BCAT1 in vitro enzyme inhibition assay (resazurin/diaphorase-coupled fluorescence); format: biochemical
T2 sequence (P54687 1-386): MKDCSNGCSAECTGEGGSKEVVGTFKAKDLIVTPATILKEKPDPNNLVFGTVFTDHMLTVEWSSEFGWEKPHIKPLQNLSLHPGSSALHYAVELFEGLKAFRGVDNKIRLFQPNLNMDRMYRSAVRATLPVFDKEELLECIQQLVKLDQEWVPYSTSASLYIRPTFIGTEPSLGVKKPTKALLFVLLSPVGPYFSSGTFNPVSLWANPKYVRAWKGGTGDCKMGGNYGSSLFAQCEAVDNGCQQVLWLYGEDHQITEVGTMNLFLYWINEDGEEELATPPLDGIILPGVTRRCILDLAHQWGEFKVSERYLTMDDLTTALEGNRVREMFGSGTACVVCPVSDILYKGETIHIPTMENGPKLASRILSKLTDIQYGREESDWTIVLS
Procedure: BCAT1 In Vitro Enzyme Inhibition Assay
Meanwhile the Substrate Mix was prepared.
Test Compound Preparation:
Test compounds were prepared at 50× final concentration in DMSO, 1 to 3 dilutions were made for 10 points. The compounds were added to the assay as a 1 to 50 dilution (1 μL in 50 μL) to yield a top assay final concentration of 100 μM, decreasing 3-fold for 10 points. […] All tests were performed in technical duplicate.
Where a compound was tested multiple times, the average value of the tests is reported.

BCAT2 [2] = molecular target: T1, BCAT2; assay: BCAT2 in vitro cell inhibition using engineered A549 cells (KMV cell assay, 13C6-KMV by LC-MS/MS); format: cell-based; set-up: The result was an engineered A549 cell line that expressed endogenous BCAT2; endogenous in cells; host or cells: A549 cells with MUT and BCAT1 knocked out by CRISPR/CAS9; key to BCAT2 Cell Inhibition: A: less than or equal to 0.100 μM; B: greater than 0.100 and less than or equal to 0.500 μM; C: greater than 0.500 and less than or equal to 1.000 μM; d: greater than 1.000 μM; E: no fit

| SMILES | IC50 (BCAT2 [1]) [nM] | IC50 (hBCAT1) [nM] | IC50 (BCAT2 [2]) [nM] | BCAT2 Cell Inhibition (BCAT2 [2]) |
| --- | --- | --- | --- | --- |
| O=C(N[C@@H]1CCCC[C@H](n2c(-c3ccccc3F)nc3cnc(-c4nnc[nH]4)cc32)C1)c1ncc(Cl)s1 (single isomer, unassigned) [Example 87, 5-chloro-N-(3-(2-(2-fluorophenyl)-6-(4H-1,2,4-triazol-3-yl)-1H-imidazo[4,5-c]pyridin-1-yl)cycloheptyl)thiazole-2-carboxamide] | ≤ 100 | 1000 to 5000 | 100 to 500 |  |
| O=C(N[C@H]1CCCC[C@@H](n2c(-c3ccccc3F)nc3cnc(-c4nnc[nH]4)cc32)C1)c1ncc(Cl)s1 (single isomer, unassigned) [Example 88, 5-chloro-N-(3-(2-(2-fluorophenyl)-6-(4H-1,2,4-triazol-3-yl)-1H-imidazo[4,5-c]pyridin-1-yl)cycloheptyl)thiazole-2-carboxamide] | ≤ 100 | < 500 | ≤ 100 |  |
| O=C(N[C@H]1CCC[C@@H](n2c(C3CCCCO3)nc3cnc(-c4nc[nH]n4)cc32)C1)c1ncc(Cl)s1 (single isomer, unassigned) [Example 89] | ≤ 100 | 500 to 1000 | 100 to 500 |  |
| O=C(N[C@H]1CCC[C@@H](n2c(C3CCCCO3)nc3cnc(-c4nc[nH]n4)cc32)C1)c1ncc(Cl)s1 (single isomer, unassigned) [Example 90] | ≤ 100 | < 500 | 100 to 500 |  |
| O=C(N[C@H]1CCC[C@@H](n2c(C3CCCOC3)nc3cnc(-c4nc[nH]n4)cc32)C1)c1ncc(Cl)s1 (single isomer, unassigned) [Example 102] | ≤ 100 | 1000 to 5000 | > 1000 |  |
| O=C(N[C@H]1CCC[C@@H](n2c(C3CCCOC3)nc3cnc(-c4nc[nH]n4)cc32)C1)c1ncc(Cl)s1 (single isomer, unassigned) [Example 103] | ≤ 100 | 500 to 1000 | 100 to 500 |  |
| O=C(N[C@@H]1C[C@@H](O)C[C@H](n2c(-c3ccccc3F)nc3cnc(-n4nccn4)cc32)C1)c1ncc(C(F)F)s1 (single isomer, unassigned) [Example 107] | 100 to 500 | < 500 | 500 to 1000 |  |
| O=C(N[C@H]1C[C@H](O)C[C@@H](n2c(-c3ccccc3F)nc3cnc(-n4nccn4)cc32)C1)c1ncc(C(F)F)s1 (single isomer, unassigned) [Example 108] | ≤ 100 | < 500 | ≤ 100 |  |
| O=C(N[C@H]1C[C@H](O)C[C@@H](n2c(-c3ccccc3F)nc3cnc(-n4nccn4)cc32)C1)c1ncc(Cl)s1 (single isomer, unassigned) [Example 110] | ≤ 100 | < 500 | ≤ 100 |  |
| O=C(N[C@@H]1C[C@@H](O)C[C@H](n2c(-c3ccccc3F)nc3cnc(-n4nccn4)cc32)C1)c1ncc(Cl)s1 (single isomer, unassigned) [Example 111] | 100 to 500 | < 500 | 100 to 500 |  |
| O=C(N[C@H]1CCC[C@@H](n2c(-c3ccccc3F)nc3cnc(-n4nccn4)cc32)[C@@H]1O)c1ncc(Cl)s1 (single isomer, unassigned) [Example 113] | ≤ 100 | < 500 | ≤ 100 |  |
| CN1C[C@@H](NC(=O)c2ncc(Cl)s2)C[C@@H](n2c(-c3ccccc3F)nc3cnc(-c4nc[nH]n4)cc32)C1 (single isomer, unassigned) [Example 133] | 100 to 500 | 1000 to 5000 | > 1000 |  |
| CN1C[C@H](NC(=O)c2ncc(Cl)s2)C[C@H](n2c(-c3ccccc3F)nc3cnc(-c4nc[nH]n4)cc32)C1 (single isomer, unassigned) [Example 134] | ≤ 100 | < 500 | ≤ 100 |  |
| CC(C)Cc1nc2cnc(-c3nc[nH]n3)cc2n1[C@@H]1C[C@H](NC(=O)c2ncc(Cl)s2)CN(C)C1 (single isomer, unassigned) [Example 135] | > 1000 | > 5000 |  | E |
| CC(C)Cc1nc2cnc(-c3nc[nH]n3)cc2n1[C@H]1C[C@@H](NC(=O)c2ncc(Cl)s2)CN(C)C1 (single isomer, unassigned) [Example 136] | ≤ 100 | < 500 | ≤ 100 |  |
| O=C(NC1COCC(n2c(-c3ncccc3F)nc3cnc(-n4nccn4)cc32)C1)c1ncc(C(F)F)s1 (single isomer, unassigned) [Example 138, 5-(difluoromethyl)-N-(5-(2-(3-fluoropyridin-2-yl)-6-(2H-1,2,3-triazol-2-yl)-1H-imidazo[4,5-c]pyridin-1-yl)tetrahydro-2H-pyran-3-yl)thiazole-2-carboxamide] | ≤ 100 | 500 to 1000 | 100 to 500 |  |
| O=C(NC1COCC(n2c(-c3ncccc3F)nc3cnc(-n4nccn4)cc32)C1)c1ncc(C(F)F)s1 (single isomer, unassigned) [Example 139, 5-(difluoromethyl)-N-(5-(2-(3-fluoropyridin-2-yl)-6-(2H-1,2,3-triazol-2-yl)-1H-imidazo[4,5-c]pyridin-1-yl)tetrahydro-2H-pyran-3-yl)thiazole-2-carboxamide] | > 1000 | > 5000 |  | E |
| CC(C)Cc1nc2cnc(-n3nccn3)cc2n1[C@@H]1COC[C@H](NC(=O)c2ccc(Cl)s2)C1 (single isomer, unassigned) [Example 141] | ≤ 100 | < 500 | ≤ 100 |  |
| O=C(NC1COCC(n2c(-c3ccccc3F)nc3cnc(-n4nccn4)cc32)C1)c1ncc(C(F)F)s1 (single isomer, unassigned) [Example 142, 5-(difluoromethyl)-N-(5-(2-(2-fluorophenyl)-6-(2H-1,2,3-triazol-2-yl)-1H-imidazo[4,5-c]pyridin-1-yl)tetrahydro-2H-pyran-3-yl)thiazole-2-carboxamide] | ≤ 100 | < 500 | ≤ 100 |  |
| O=C(NC1COCC(n2c(-c3ccccc3F)nc3cnc(-n4nccn4)cc32)C1)c1ncc(C(F)F)s1 (single isomer, unassigned) [Example 143, 5-(difluoromethyl)-N-(5-(2-(2-fluorophenyl)-6-(2H-1,2,3-triazol-2-yl)-1H-imidazo[4,5-c]pyridin-1-yl)tetrahydro-2H-pyran-3-yl)thiazole-2-carboxamide] | 100 to 500 | > 5000 | 100 to 500 |  |
| CC(C)Cc1nc2cnc(-c3cccc4ccoc34)cc2n1[C@@H]1CCC[C@H](NC(=O)c2ncc(Cl)s2)C1 [Example 327, N-((1S,3R)-3-(6-(benzofuran-7-yl)-2-isobutyl-1H-imidazo[4,5-c]pyridin-1-yl)cyclohexyl)-5-chlorothiazole-2-carboxamide] | 100 to 500 | 1000 to 5000 |  |  |
| Cc1nsc(-c2cc3c(cn2)nc(CC(C)C)n3[C@@H]2CCC[C@H](NC(=O)c3ncc(Cl)s3)C2)n1 [Example 336, 5-chloro-N-((1S,3R)-3-(2-isobutyl-6-(3-methyl-1,2,4-thiadiazol-5-yl)-1H-imidazo[4,5-c]pyridin-1-yl)cyclohexyl)thiazole-2-carboxamide] | 100 to 500 | 1000 to 5000 |  |  |
| O=C(N[C@H]1CCC[C@@H](n2c(N3CCCCC3)nc3cnc(-c4nc[nH]n4)cc32)C1)c1ccc(Cl)s1 [Example 372, 5-chloro-N-((1S,3R)-3-(2-(piperidin-1-yl)-6-(1H-1,2,4-triazol-3-yl)-1H-imidazo[4,5-c]pyridin-1-yl)cyclohexyl)thiophene-2-carboxamide] | ≤ 100 | < 500 |  |  |
| CC(C)Cc1nc2cnc(-n3nccn3)cc2n1[C@H]1CCC[C@@H](NC(=O)c2ccc(Cl)s2)[C@@H]1O [Example 394, 5-chloro-N-((1R,2S,3S)-2-hydroxy-3-(2-isobutyl-6-(2H-1,2,3-triazol-2-yl)-1H-imidazo[4,5-c]pyridin-1-yl)cyclohexyl)thiophene-2-carboxamide] | > 1000 | 1000 to 5000 |  |  |
